Results from US20250263408A1 (Uniquest Pty Ltd, priority 2022, published 2025).

How the values were obtained:
[1] = tested on: Ba/F3-WT (wild type) cells; assay: Ba/F3 Proliferation Assay, Ba/F3-WT (wild type) cells with mIL-3 (Resazurin); format: cell-based; conditions: Ba/F3-WT cells +mIL-3, 48-hour incubation
Description: (§1) Ba/F3-Syk and Ba/F3-WT (wild type) cells were maintained at ≤1×10^6 cell/mL in RPMI (Life Technologies) with 10% FBS at 37° C. and 5% CO2 for a maximum of four weeks. Ba/F3-WT additionally contained 2 ng/mL mIL-3 (R&D Systems) to induce cellular growth. Cells were counted and dispensed at 5000 cells/well using a Multidrop Liquid Dispenser in a volume of 45 μL into black 384-well TC treated plates (Greiner) and incubated for four hours in complete media (+mIL-3 for Ba/F3-WT). Compounds were serially diluted in 100% DMSO, prior to an intermediate dilution in RPMI media. 5 μL of compound (0.4% final DMSO) was added to the cells, followed by a 48-hour incubation period. 5 μL of Resazurin (60 μM final) was then added and cells were incubated at 37° C. for three hours, before fluorescence (λex530/λem585) was measured using an Ensight Multimode Plate Reader (Perkin Elmer).

[2] = molecular target: T1, Ba/F3-Syk cells (Homo sapiens, UniProt P43405); assay: Ba/F3 Proliferation Assay, Ba/F3-Syk cells (Resazurin); format: cell-based; conditions: 48-hour incubation
T1 construct: fused on or other part: Possible but unprinted fusion partner: TEL (ETV6), the usual partner for Ba/F3 lines transformed by Syk; Nothing on a partner is printed
Description: as §1

| Compound | EC50 ([1]; Mus musculus, BaF3, 48 h) | EC50 [2] | EC50 [1] |
| --- | --- | --- | --- |
| F/C=C\n1cc(-c2cc3ncccc3c(OC[C@@H]3CNCCO3)n2)cn1 [Compound 6.7, 7-{1-[(1Z)-2-fluoroethenyl]-1H-pyrazol-4-yl}-5-{[(2S)-morpholin-2-yl]methoxy}-1,6-naphthyridine] | 3400 nM | 113 nM |  |
| Clc1csc(-c2cc3ncccc3c(OC[C@@H]3CNCCO3)n2)c1 [Compound 2.34, 7-(4-chlorothiophen-2-yl)-5-{[(2S)-morpholin-2-yl]methoxy}-1,6-naphthyridine] | 1560 nM | 394 nM |  |
| CC1(C)CNC[C@@H](COc2nc(-c3cnn(CC4CC4)c3)cc3ncccc23)O1 [Compound 6.21, 7-[1-(cyclopropylmethyl)-1H-pyrazol-4-yl]-5-{[(2S)-6,6-dimethylmorpholin-2-yl]methoxy}-1,6-naphthyridine] | 1510 nM | 12.6 nM |  |
| FC(F)Cn1cc(-c2cc3ncccc3c(OC[C@@H]3CNCCCO3)n2)cn1 [Compound 6.27, 7-[1-(2,2-difluoroethyl)-1H-pyrazol-4-yl]-5-{[(2S)-1,4-oxazepan-2-yl]methoxy}-1,6-naphthyridine] | 5590 nM | 52.2 nM |  |
| CC[C@@H](C)n1cc(-c2cc3ncccc3c(OC[C@@H]3CNCC(C)(C)O3)n2)cn1 [Compound 6.33, 7-{1-[(2R)-butan-2-yl]-1H-pyrazol-4-yl}-5-{[(2S)-6,6-dimethylmorpholin-2-yl]methoxy}-1,6-naphthyridine] | 3760 nM | 49.3 nM |  |
| Cc1cc(-c2cc3ncccc3c(OC[C@@H]3CNCCO3)n2)c(C)n1C [Compound 2.40, 5-{[(2S)-morpholin-2-yl]methoxy}-7-(1,2,5-trimethyl-1H-pyrrol-3-yl)-1,6-naphthyridine] | > 10000 nM | 645 nM |  |
| CC(C)(C)n1cc(-c2cc3ncccc3c(OC[C@H]3CNCCCO3)n2)cn1 [Compound 2.59, 7-(1-tert-butyl-1H-pyrazol-4-yl)-5-{[(2R)-1,4-oxazepan-2-yl]methoxy}-1,6-naphthyridine] | 985 nM | 58.9 nM |  |
| Cn1cc(-c2cc3ncccc3c(OC[C@@H]3CN[C@@H]4CCC[C@@H]4O3)n2)cn1 (relative stereo) [Compound 2.54, 5-{[rel-(2S,4aR,7aS)-octahydrocyclopenta[b][1,4]oxazin-2-yl]methoxy}-7-(1-methyl-1H-pyrazol-4-yl)-1,6-naphthyridine] | 1580 nM | 288 nM |  |
| CC1(Cn2cc(-c3cc4ncccc4c(OC[C@@H]4CNCCO4)n3)cn2)COC1 [Compound 6.36] | 1390 nM | 81.6 nM |  |
| FC1(F)CC(Cn2ccc(-c3cc4ncccc4c(OC[C@@H]4CNCCO4)n3)c2)C1 [Compound 6.42, 7-{1-[(3,3-difluorocyclobutyl)methyl]-1H-pyrrol-3-yl}-5-{[(2S)-morpholin-2-yl]methoxy}-1,6-naphthyridine] | 838 nM | 15.1 nM |  |
| CCn1ccc(-c2cc3ncccc3c(OC[C@@H]3CNCCO3)n2)c1 [Compound 6.1, 7-(1-ethyl-1H-pyrrol-3-yl)-5-{[(2S)-morpholin-2-yl]methoxy}-1,6-naphthyridine] | 2660 nM | 38.8 nM |  |
| CC1(C)CNC[C@@H](COc2cc(-c3ccn(C(C)(C)C)c3)cc3ncccc23)O1 [Compound 3.16, 7-(1-tert-butyl-1H-pyrrol-3-yl)-5-{[(28)-6,6-dimethylmorpholin-2-yl]methoxy}quinoline] | 6170 nM | 11.9 nM |  |
| Cn1ccc(-c2cc3ncccc3c(OC[C@@H]3CN[C@@H]4C[C@@H]4O3)n2)c1 (relative stereo) [Compound 2.71, 7-(1-methyl-1H-pyrrol-3-yl)-5-{[(rel-1S,3S,6R)-2-oxa-5-azabicyclo[4.1.0]heptan-3-yl]methoxy}-1,6-naphthyridine] | > 10000 nM | 1330 nM |  |

Results, then the compound that gave them:

| EC50 ([1]; Mus musculus, BaF3, 48 h) | EC50 [2] | EC50 [1] | Compound |
| --- | --- | --- | --- |
| > 1000 nM | 11.5 nM |  | CC[C@H](C)n1ccc(-c2cc(OC[C@@H]3CNCCO3)c3nccnc3c2)c1 [Compound 8.25, 7-{1-[(2S)-butan-2-yl]-1H-pyrrol-3-yl}-5-{[(2S)-morpholin-2-yl]methoxy}quinoxaline] |
| 1920 nM | 86.1 nM |  | CC(C)n1cc(-c2cc3ncccc3c(OC[C@@H]3CNCC(C)(C)CO3)n2)cn1 [Compound 10.12, 5-{[(2S)-6,6-dimethyl-1,4-oxazepan-2-yl]methoxy}-7-[1-(propan-2-yl)-1H-pyrazol-4-yl]-1,6-naphthyridine] |
| > 10000 nM | 214 nM |  | Cn1cc(-c2cc(OC[C@@H]3CNCC4(CC4)O3)c3nccnc3c2)cn1 [Compound 12.1, 7-(1-methyl-1H-pyrazol-4-yl)-5-{[(5S)-4-oxa-7-azaspiro[2.5]octan-5-yl]methoxy}quinoxaline] |
| 865 nM | 20 nM |  | CC1(C)CNC[C@@H](COc2nc(-c3cnn(C(C)(C)C)c3)cc3nccc(C(F)(F)F)c23)O1 [Compound 14.13, 7-(1-tert-butyl-1H-pyrazol-4-yl)-5-{[(2S)-6,6-dimethylmorpholin-2-yl]methoxy}-4-(trifluoromethyl)-1,6-naphthyridine] |
| 1850 nM | 90.6 nM |  | C[C@@H](Oc1cc(-c2ccn(C)c2)cc2ncccc12)[C@@H]1CNCC(C)(C)O1 [Compound 11.5, 5-[(1R)-1-[(2S)-6,6-dimethylmorpholin-2-yl]ethoxy]-7-(1-methyl-1H-pyrrol-3-yl)quinoline] |
| 3280 nM | 798 nM |  | Cn1cc(-c2cc3ncccc3c(O[C@@H]([C@@H]3CNCCO3)C(F)(F)F)n2)cn1 [Compound 10.5, 7-(1-methyl-1H-pyrazol-4-yl)-5-[(1S)-2,2,2-trifluoro-1-[(2S)-morpholin-2-yl]ethoxy]-1,6-naphthyridine] |
| 1900 nM | 196 nM |  | FC(F)c1csc(-c2cc(OC[C@@H]3CNCCO3)c3cccnc3c2)c1 [Compound 14.4, 7-[4-(difluoromethyl)thiophen-2-yl]-5-{[(2S)-morpholin-2-yl]methoxy}quinoline] |
| > 1000 nM | 12.9 nM |  | CC[C@@H](C)n1ccc(-c2cc(OC[C@@H]3CNCCO3)c3nccnc3c2)c1 [Compound 8.24, 7-{1-[(2R)-butan-2-yl]-1H-pyrrol-3-yl}-5-{[(2S)-morpholin-2-yl]methoxy}quinoxaline] |
|  | 74.4 nM | > 5000 nM | CC(C)(C)n1cc(-c2cc3ncccc3c(OC[C@H]3O[C@H]4CCN[C@@H]3C4)n2)cn1 (single isomer, unassigned) [Compound 13.12] |
| 558 nM | 37.5 nM |  | CC(C)n1cc(-c2cc(O[C@H](C)[C@@H]3CNCC(C)(C)O3)c3cccnc3c2)cn1 [Compound 11.3, 5-[(1R)-1-[(2S)-6,6-dimethylmorpholin-2-yl]ethoxy]-7-[1-(propan-2-yl)-1H-pyrazol-4-yl]quinoline] |
| 1300 nM | 27.3 nM |  | CC(C)(C)n1cc(-c2cc(OC[C@@H]3CNCC4(CC4)O3)c3nccnc3c2)cn1 [Compound 12.3, 7-(1-tert-butyl-1H-pyrazol-4-yl)-5-{[(5S)-4-oxa-7-azaspiro[2.5]octan-5-yl]methoxy}quinoxaline] |
|  | 92.2 nM | 1680 nM | 7-(1-tert-butyl-1H-pyrazol-4-yl)-5-{[(2R)-2-ethylmorpholin-2-yl]methoxy}-1,6-naphthyridine [Compound 10.15] |
| 6360 nM | 586 nM |  | c1cnc2cc(-c3ccns3)nc(OC[C@@H]3CNCCO3)c2c1 [Compound 13.1, 5-{[(2S)-morpholin-2-yl]methoxy}-7-(1,2-thiazol-5-yl)-1,6-naphthyridine] |
| 4140 nM | 80.8 nM |  | CC1(C)CNC[C@@H](COc2nc(-c3cnn(C(C)(C)C)c3)cc3ncccc23)OC1 [Compound 10.11, 7-(1-tert-butyl-1H-pyrazol-4-yl)-5-{[(2S)-6,6-dimethyl-1,4-oxazepan-2-yl]methoxy}-1,6-naphthyridine] |
| 537 nM | 7.8 nM |  | CCn1ccc(-c2cc(O[C@H](C)[C@@H]3CNCC(C)(C)O3)c3nccnc3c2)c1 [Compound 8.12, 5-[(1R)-1-[(2S)-6,6-dimethylmorpholin-2-yl]ethoxy]-7-(1-ethyl-1H-pyrrol-3-yl)quinoxaline] |
| > 10000 nM | 839 nM |  | Cn1cc(-c2cc3ncccc3c(O[C@H]([C@@H]3CNCCO3)C(F)(F)F)n2)cn1 [Compound 10.2, 7-(1-methyl-1H-pyrazol-4-yl)-5-[(1R)-2,2,2-trifluoro-1-[(2S)-morpholin-2-yl]ethoxy]-1,6-naphthyridine] |
| 754 nM | 106 nM |  | CC(C)n1cc(-c2cc3ncccc3c(OC[C@]3(C)CNCCO3)n2)cn1 [Compound 10.6, 5-{[(2S)-2-methylmorpholin-2-yl]methoxy}-7-[1-(propan-2-yl)-1H-pyrazol-4-yl]-1,6-naphthyridine] |
| 2550 nM | 281 nM |  | CC[C@@]1(COc2nc(-c3cnn(C(C)(C)C)c3)cc3ncccc23)CNCCO1 [Compound 10.14, 7-(1-tert-butyl-1H-pyrazol-4-yl)-5-{[(2S)-2-ethylmorpholin-2-yl]methoxy}-1,6-naphthyridine] |
| 951 nM | 10 nM |  | CCn1ccc(-c2cc(OC[C@@H]3CNCC(C)(C)O3)c3nccnc3c2)c1 [Compound 8.21, 5-{[(2S)-6,6-dimethylmorpholin-2-yl]methoxy}-7-(1-ethyl-1H-pyrrol-3-yl)quinoxaline] |
